Measured values from US20250197387A1, “BCL-XL DEGRADERS AND USES THEREOF” (Kymera Therapeutics, Inc., priority 2021, published 2025).

Assays:
Format in all cases: cell-based
[1] = target: T1, BCL-XL (Homo sapiens, UniProt Q07817); assay: Bcl-xL ELISA degradation in MOLT-4 cells, 6 h; conditions: for DC50: read-out: Bcl-xL ELISA in MOLT-4 degradation 6 h: Mean external-Abs DC50
T1 construct: endogenous in cells; host or cells: MOLT-4
Description: The letter codes for BCL-XL DC50 include: A (<0.01 μM); B (0.01-0.1 μM); C (>[…]); D (>0.5-1.0 μM); and E (>1.0 μM). The letter codes for Dmax % include A (>75%); B (50 to 75%); C (<50%).

[2] = tested on: MOLT-4 cells; assay: CTG (CellTiter-Glo) cell viability assay, MOLT-4; conditions: Homo sapiens, MOLT-4, 72 h, 3 day incubation, read-out: CTG Cell Viability Assay - MOLT-4 3 day: Average external-IC50
Method in brief: (§1)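 Nine-point 1:3 compound series topping at 10 μM (0.2% DMSO final) applied for 3 days to 10,000 MOLT-4 or Caki-2 cells per well, 37° C., 5% CO2. CellTiter-Glo luminescence read after 10 min at room temperature; three-parameter fit gave IC50.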

[3] = tested on: Caki-2 cells; assay: CTG (CellTiter-Glo) cell viability assay, Caki-2; conditions: Homo sapiens, 72 h, 3 day incubation, read-out: CTG Chempartner - Caki-2 3 day: Average external-IC50
Method in brief: as §1

T1 sequence (Q07817 whole entry): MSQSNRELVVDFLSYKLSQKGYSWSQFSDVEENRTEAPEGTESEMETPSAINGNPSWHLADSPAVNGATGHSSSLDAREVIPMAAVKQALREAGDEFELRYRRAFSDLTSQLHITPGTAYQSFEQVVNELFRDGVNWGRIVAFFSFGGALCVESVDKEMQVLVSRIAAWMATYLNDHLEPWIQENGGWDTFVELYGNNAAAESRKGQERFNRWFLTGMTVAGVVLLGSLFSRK

Dmax [1] [%]	DC50 [1] [nM]	IC50 [2] [nM]	Structure (SMILES)	IC50 [3] [nM]
> 75	< 10	< 100	Cc1ncsc1-c1ccc(CNC(=O)[C@@H]2C[C@@H](O)CN2C(=O)[C@@H](NC(=O)CCCc2cc(F)cc(S(=O)(=O)NC(=O)c3nc(N4CCc5cccc(C(=O)Nc6nc7ccccc7s6)c5C4)ccc3-c3cnn(CC4CCCCC4)c3C)c2)C(C)(C)C)cc1 [I-374]	1000 to 10000
> 75	10 to 100	1000 to 3000	C#Cc1ccc(CNC(=O)[C@@H]2C[C@@H](O)CN2C(=O)[C@@H](NC(=O)CCNCCS(=O)(=O)NC(=O)c2nc(N3CCc4cccc(C(=O)Nc5nc6cccnc6s5)c4C3)ccc2-c2cnn(CC3CCCCC3)c2C)C(C)(C)C)cc1 [I-375]	> 10000
> 75	10 to 100	> 3000	Cc1ncsc1-c1ccc([C@H](C)NC(=O)[C@@H]2C[C@@H](O)CN2C(=O)[C@@H](NC(=O)CCNCCS(=O)(=O)NC(=O)c2nc(N3CCc4cccc(C(=O)Nc5nc6cccnc6s5)c4C3)ccc2-c2cnn(CC3CCCCC3)c2C)C(C)(C)C)cc1 [I-376]	> 10000
> 75	< 10	1000 to 3000	Cc1ncsc1-c1ccc([C@H](CO)NC(=O)[C@@H]2C[C@@H](O)CN2C(=O)[C@@H](NC(=O)CCNCCS(=O)(=O)NC(=O)c2nc(N3CCc4cccc(C(=O)Nc5nc6cccnc6s5)c4C3)ccc2-c2cnn(CC3CCCCC3)c2C)C(C)(C)C)cc1 [I-377]	> 10000
> 75	10 to 100	100 to 1000	C#Cc1ccc([C@H](CO)NC(=O)[C@@H]2C[C@@H](O)CN2C(=O)[C@@H](NC(=O)CCNCCS(=O)(=O)NC(=O)c2nc(N3CCc4cccc(C(=O)Nc5nc6cccnc6s5)c4C3)ccc2-c2cnn(CC3CCCCC3)c2C)C(C)(C)C)cc1 [I-378]	> 10000
> 75	< 10	< 100	C#Cc1ccc(CNC(=O)[C@@H]2C[C@@H](O)CN2C(=O)[C@@H](NC(=O)CCCCCS(=O)(=O)NC(=O)c2nc(N(C)c3cc(C)c(Nc4nc5ccccc5s4)nn3)ccc2-c2cnn(CC34CC5CC(CC(C5)C3)C4)c2C)C(C)(C)C)cc1 [I-379]	> 10000
> 75	< 10	< 100	Cc1ncsc1-c1ccc([C@H](C)NC(=O)[C@@H]2C[C@@H](O)CN2C(=O)[C@@H](NC(=O)C2CCN(c3cccc(S(=O)(=O)NC(=O)c4nc(N5CCc6cccc(C(=O)Nc7nc8ccccc8s7)c6C5)ccc4-c4cnn(CC5CCCCC5)c4C)c3)CC2)C(C)(C)C)cc1 [I-380]	1000 to 10000
> 75	10 to 100	100 to 1000	Cc1ncsc1-c1ccc([C@H](C)NC(=O)[C@@H]2C[C@@H](O)CN2C(=O)[C@@H](NC(=O)C2CCN(CCCS(=O)(=O)NC(=O)c3nc(N4CCc5cccc(C(=O)Nc6nc7ccccc7s6)c5C4)ccc3-c3cnn(CC4CCCCC4)c3C)CC2)C(C)(C)C)cc1 [I-381]	> 10000
> 75	< 10	< 100	C#Cc1ccc([C@H](C)NC(=O)[C@@H]2C[C@@H](O)CN2C(=O)[C@@H](NC(=O)CCCCCS(=O)(=O)NC(=O)c2nc(N(C)c3cc(C)c(Nc4nc5ccccc5s4)nn3)ccc2-c2cnn(CC34CC5CC(CC(C5)C3)C4)c2C)C(C)(C)C)cc1 [I-382]	> 10000
> 75	10 to 100	100 to 1000	Cc1ncsc1-c1ccc(CNC(=O)[C@@H]2C[C@@H](O)CN2C(=O)[C@@H](NC(=O)C2(F)CC2)C(C)(C)C)c(OCCN2CCN(CC[C@H](CSc3ccccc3)Nc3ccc(S(=O)(=O)NC(=O)c4ccc(N5CC6(CC(N7CCC[C@H]7c7ccccc7C7CC7)C6)C5)cc4)cc3S(=O)(=O)C(F)(F)F)CC2)c1 [I-400]	> 10000
50 to 75	100 to 500	100 to 1000	C#Cc1ccc(CNC(=O)[C@@H]2C[C@@H](O)CN2C(=O)[C@H](c2cc(N3CCN(c4ccc(S(=O)(=O)NC(=O)c5nc(N6CCc7cccc(C(=O)Nc8nc9ccccc9s8)c7C6)ccc5-c5cnn(CC6CCCCC6)c5C)cc4)CC3)no2)C(C)C)cc1 [I-407]	1000 to 10000
50 to 75	< 10	< 100	C#Cc1ccc(CNC(=O)[C@@H]2C[C@@H](O)CN2C(=O)[C@H](c2cc(N3CCN(c4ccc(S(=O)(=O)NC(=O)c5nc(N6CCc7cccc(C(=O)Nc8nc9ccccc9s8)c7C6)ccc5-c5cnn(CC6CCCCC6)c5C)cc4)CC3)no2)C(C)C)c(OC)c1 [I-408]	> 10000
> 75	10 to 100	< 100	Cc1ncsc1-c1ccc([C@H](C)NC(=O)[C@@H]2C[C@@H](O)CN2C(=O)[C@@H](NC(=O)C2CCN(c3ccc(S(=O)(=O)NC(=O)c4nc(N5CCc6cccc(C(=O)Nc7nc8ccccc8s7)c6C5)ccc4-c4cnn(CC5(OCCO)CCCCC5)c4C)cc3)CC2)C(C)(C)C)cc1 [I-409]	> 10000
> 75	10 to 100	< 100	Cc1ncsc1-c1ccc(CNC(=O)[C@@H]2C[C@@H](O)CN2C(=O)[C@@H](NC(=O)[C@@H]2CCN(c3ccc(S(=O)(=O)NC(=O)c4nc(N5CCc6cccc(C(=O)Nc7nc8ccccc8s7)c6C5)ccc4-c4cnn(CC5CCCCC5)c4C)cc3)C2)C(C)(C)C)cc1 [I-410]	> 10000
> 75	10 to 100	100 to 1000	C#Cc1ccc(CNC(=O)[C@@H]2C[C@@H](O)CN2C(=O)[C@@H](NC(=O)CCN(C)CCS(=O)(=O)NC(=O)c2nc(N3CCc4cccc(C(=O)Nc5nc6cccnc6s5)c4C3)ccc2-c2cnn(CC3CCCCC3)c2C)C(C)(C)C)cc1 [I-413]	> 10000
50 to 75	> 1000	> 3000	C#Cc1ccc([C@H](CO)NC(=O)[C@@H]2C[C@@H](O)CN2C(=O)[C@@H](NC(=O)CCNCCS(=O)(=O)NC(=O)c2nc(N3CCc4cccc(C(=O)Nc5nc6cccnc6s5)c4C3)ccc2-c2cnn(CC(C)C)c2C)C(C)(C)C)cc1 [I-414]	> 10000
50 to 75	> 1000	> 3000	Cc1ncsc1-c1ccc([C@H](C)NC(=O)[C@@H]2C[C@@H](O)CN2C(=O)[C@@H](NC(=O)CCCCCS(=O)(=O)NC(=O)c2nc(N3CCc4cccc(C(=O)Nc5nc6ccccc6s5)c4C3)ccc2-c2cnn(CC3CCCCC3)c2C)C(C)(C)CCOP(=O)(O)O)cc1 [I-415]	> 10000
> 75	100 to 500	> 3000	Cc1ncsc1-c1ccc([C@H](C)NC(=O)[C@@H]2C[C@@H](O)CN2C(=O)[C@H](NC(=O)CCCCCS(=O)(=O)NC(=O)c2nc(N3CCc4cccc(C(=O)Nc5nc6ccccc6s5)c4C3)ccc2-c2cnn(CC3CCCCC3)c2C)C(C)(C)CCOP(=O)(O)O)cc1 [I-416]	> 10000
50 to 75	> 1000	> 3000	C#Cc1ccc(CNC(=O)[C@@H]2C[C@@H](O)CN2C(=O)[C@@H](NC(=O)CCCCCS(=O)(=O)NC(=O)c2nc(N3CCc4cccc(C(=O)Nc5nc6ccccc6s5)c4C3)ccc2-c2cnn(CC3CCCCC3)c2C)C(C)(C)CCOP(=O)(O)O)cc1 [I-417]	> 10000
> 75	100 to 500	100 to 1000	C#Cc1ccc(CNC(=O)[C@@H]2C[C@@H](O)CN2C(=O)[C@H](NC(=O)CCCCCS(=O)(=O)NC(=O)c2nc(N3CCc4cccc(C(=O)Nc5nc6ccccc6s5)c4C3)ccc2-c2cnn(CC3CCCCC3)c2C)C(C)(C)CCOP(=O)(O)O)cc1 [I-418]	> 10000
> 75	< 10	< 100	Cc1ncsc1-c1ccc([C@H](C)NC(=O)[C@@H]2C[C@@H](O)CN2C(=O)[C@@H](NC(=O)C2CCCN(c3ccc(S(=O)(=O)NC(=O)c4nc(N5CCc6cccc(C(=O)Nc7nc8ccccc8s7)c6C5)ccc4-c4cnn(CC5CCCCC5)c4C)cc3)C2)C(C)(C)C)cc1 (some centres unmarked) [I-419]	1000 to 10000
> 75	10 to 100	< 100	Cc1ncsc1-c1ccc([C@H](C)NC(=O)[C@@H]2C[C@@H](O)CN2C(=O)[C@@H](NC(=O)C#CC2CCN(S(=O)(=O)NC(=O)c3nc(N4CCc5cccc(C(=O)Nc6nc7ccccc7s6)c5C4)ccc3-c3cnn(CC4CCCCC4)c3C)CC2)C(C)(C)C)cc1 [I-420]	1000 to 10000
> 75	10 to 100	1000 to 3000	Cc1ncsc1-c1ccc(CNC(=O)[C@@H]2C[C@@H](O)CN2C(=O)[C@@H](NC(=O)C2CN(CCCS(=O)(=O)NC(=O)c3nc(N4CCc5cccc(C(=O)Nc6nc7ccccc7s6)c5C4)ccc3-c3cnn(CC4CCCCC4)c3C)C2)C(C)(C)C)cc1 [I-421]	> 10000
> 75	100 to 500	100 to 1000	Cc1ncsc1-c1ccc(CNC(=O)[C@@H]2C[C@@H](O)CN2C(=O)[C@@H](NC(=O)C2CN(CCS(=O)(=O)NC(=O)c3nc(N4CCc5cccc(C(=O)Nc6nc7ccccc7s6)c5C4)ccc3-c3cnn(CC4CCCCC4)c3C)C2)C(C)(C)C)cc1 [I-422]	> 10000
> 75	< 10	< 100	Cc1cc(N(C)c2ccc(-c3cnn(CC45CC6CC(CC(C6)C4)C5)c3C)c(C(=O)NS(=O)(=O)CCCCCc3cccc4c3n(C)c(=O)n4C3CCC(=O)NC3=O)n2)nnc1Nc1nc2ccccc2s1 (centres unmarked) [I-423]	1000 to 10000
> 75	< 10	< 100	Cc1cc(N(C)c2ccc(-c3cnn(CC45CC6CC(CC(C6)C4)C5)c3C)c(C(=O)NS(=O)(=O)CCCCCc3ccc4c(c3)n(C)c(=O)n4C3CCC(=O)NC3=O)n2)nnc1Nc1nc2ccccc2s1 (centres unmarked) [I-424]	1000 to 10000
